Assay results: paper PMC3004530 (Journal of the American Chemical Society, 2010)

What was measured:
HDACs 1, 2 and 3 = test: Mode of inhibition / deacetylation progression; format: biochemical
HDAC8 = HDAC8 (Homo sapiens, UniProt Q9BY41)
HDAC6 = HDAC6 (Homo sapiens, UniProt Q9UBN7)
HDAC1 = HDAC1 (Homo sapiens, UniProt Q13547); test: HDAC1 biochemical inhibition assay; conditions: read-out: IC50 HDAC1
HDAC3 = HDAC3 (Homo sapiens, UniProt O15379); test: HDAC3 biochemical inhibition assay; conditions: read-out: IC50 HDAC3
HDACs 4-8 = test: HDAC biochemical inhibition, HDACs 4-8; conditions: data not shown
HDAC2 = HDAC2 (Homo sapiens, UniProt Q92769); test: HDAC2 high-throughput coupled biochemical assay
HDAC = conditions: cited from earlier work

Chain of HDAC2 (Q92769 whole entry, species assumed): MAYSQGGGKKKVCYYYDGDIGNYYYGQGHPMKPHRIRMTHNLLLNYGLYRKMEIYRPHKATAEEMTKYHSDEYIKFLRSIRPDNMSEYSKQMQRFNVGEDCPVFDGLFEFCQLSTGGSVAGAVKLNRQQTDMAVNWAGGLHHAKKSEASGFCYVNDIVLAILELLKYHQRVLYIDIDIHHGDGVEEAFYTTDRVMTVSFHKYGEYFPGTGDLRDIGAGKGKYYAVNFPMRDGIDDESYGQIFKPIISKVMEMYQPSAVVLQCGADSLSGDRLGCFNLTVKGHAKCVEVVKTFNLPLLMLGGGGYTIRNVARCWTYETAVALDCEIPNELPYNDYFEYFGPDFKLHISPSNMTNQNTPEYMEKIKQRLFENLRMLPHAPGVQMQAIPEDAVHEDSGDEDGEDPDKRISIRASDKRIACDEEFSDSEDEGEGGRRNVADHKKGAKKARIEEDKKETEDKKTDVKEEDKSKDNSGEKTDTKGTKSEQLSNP
Chain of HDAC3 (O15379 whole entry, species assumed): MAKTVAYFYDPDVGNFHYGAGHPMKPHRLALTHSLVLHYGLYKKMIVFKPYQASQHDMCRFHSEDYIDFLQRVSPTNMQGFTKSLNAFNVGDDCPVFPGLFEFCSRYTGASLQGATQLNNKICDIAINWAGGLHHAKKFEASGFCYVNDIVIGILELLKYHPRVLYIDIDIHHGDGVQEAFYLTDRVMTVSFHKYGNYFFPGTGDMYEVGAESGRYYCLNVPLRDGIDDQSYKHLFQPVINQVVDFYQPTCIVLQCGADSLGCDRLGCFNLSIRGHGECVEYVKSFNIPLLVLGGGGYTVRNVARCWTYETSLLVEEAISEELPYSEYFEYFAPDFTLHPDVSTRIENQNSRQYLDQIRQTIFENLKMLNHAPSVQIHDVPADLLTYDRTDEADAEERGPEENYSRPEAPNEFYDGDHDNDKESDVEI
Chain of HDAC3 (Q9Y618 395-489 partner limits assumed, species assumed): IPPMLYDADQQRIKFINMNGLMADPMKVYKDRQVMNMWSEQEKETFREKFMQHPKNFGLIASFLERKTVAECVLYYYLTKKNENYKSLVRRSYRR
Chain of HDAC6 (Q9UBN7 whole entry, species assumed): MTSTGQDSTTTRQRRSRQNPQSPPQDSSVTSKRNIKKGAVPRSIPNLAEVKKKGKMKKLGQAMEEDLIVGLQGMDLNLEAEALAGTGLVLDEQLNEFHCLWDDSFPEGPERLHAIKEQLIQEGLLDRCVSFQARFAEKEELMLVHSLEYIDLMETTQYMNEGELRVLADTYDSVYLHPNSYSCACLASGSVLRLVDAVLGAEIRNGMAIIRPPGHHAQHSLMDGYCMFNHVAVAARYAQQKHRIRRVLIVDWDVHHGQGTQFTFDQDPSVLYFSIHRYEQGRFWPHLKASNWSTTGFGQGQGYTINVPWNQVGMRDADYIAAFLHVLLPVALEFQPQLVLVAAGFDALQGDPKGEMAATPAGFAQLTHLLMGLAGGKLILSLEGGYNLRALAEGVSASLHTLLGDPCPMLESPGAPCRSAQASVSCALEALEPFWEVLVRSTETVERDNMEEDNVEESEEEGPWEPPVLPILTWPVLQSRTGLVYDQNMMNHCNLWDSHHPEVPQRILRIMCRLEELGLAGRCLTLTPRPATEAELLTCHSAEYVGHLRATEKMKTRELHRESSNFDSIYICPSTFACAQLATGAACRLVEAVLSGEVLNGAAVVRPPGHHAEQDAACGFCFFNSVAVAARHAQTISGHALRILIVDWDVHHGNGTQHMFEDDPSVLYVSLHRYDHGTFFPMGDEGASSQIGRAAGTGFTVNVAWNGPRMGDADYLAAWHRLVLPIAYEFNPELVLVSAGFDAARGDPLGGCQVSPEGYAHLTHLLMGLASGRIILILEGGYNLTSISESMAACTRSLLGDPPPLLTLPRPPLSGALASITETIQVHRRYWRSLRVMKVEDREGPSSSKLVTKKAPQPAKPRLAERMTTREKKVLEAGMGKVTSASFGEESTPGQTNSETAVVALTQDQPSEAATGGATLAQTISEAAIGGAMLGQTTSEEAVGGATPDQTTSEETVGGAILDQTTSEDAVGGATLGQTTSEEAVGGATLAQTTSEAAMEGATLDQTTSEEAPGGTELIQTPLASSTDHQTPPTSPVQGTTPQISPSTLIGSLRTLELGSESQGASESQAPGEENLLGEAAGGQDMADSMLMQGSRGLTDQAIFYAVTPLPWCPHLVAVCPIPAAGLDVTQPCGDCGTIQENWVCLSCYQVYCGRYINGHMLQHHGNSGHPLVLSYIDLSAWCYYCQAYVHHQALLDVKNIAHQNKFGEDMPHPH
Chain of HDAC1 (Q13547 whole entry, species assumed): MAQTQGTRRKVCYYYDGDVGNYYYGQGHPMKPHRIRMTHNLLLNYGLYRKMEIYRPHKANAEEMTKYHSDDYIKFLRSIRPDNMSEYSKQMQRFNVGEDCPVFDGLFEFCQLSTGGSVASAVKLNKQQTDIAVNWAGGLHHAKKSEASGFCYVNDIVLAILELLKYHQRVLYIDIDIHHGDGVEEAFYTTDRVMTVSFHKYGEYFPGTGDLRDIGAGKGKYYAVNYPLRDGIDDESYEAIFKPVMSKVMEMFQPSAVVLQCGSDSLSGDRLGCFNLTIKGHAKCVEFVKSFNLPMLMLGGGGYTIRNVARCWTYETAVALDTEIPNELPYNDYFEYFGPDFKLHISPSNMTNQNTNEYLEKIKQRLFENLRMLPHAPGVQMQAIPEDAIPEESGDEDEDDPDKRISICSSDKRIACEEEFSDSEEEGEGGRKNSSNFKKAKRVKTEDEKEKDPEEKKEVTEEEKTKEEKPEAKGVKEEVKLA
Chain of HDAC8 (Q9BY41 whole entry, species assumed): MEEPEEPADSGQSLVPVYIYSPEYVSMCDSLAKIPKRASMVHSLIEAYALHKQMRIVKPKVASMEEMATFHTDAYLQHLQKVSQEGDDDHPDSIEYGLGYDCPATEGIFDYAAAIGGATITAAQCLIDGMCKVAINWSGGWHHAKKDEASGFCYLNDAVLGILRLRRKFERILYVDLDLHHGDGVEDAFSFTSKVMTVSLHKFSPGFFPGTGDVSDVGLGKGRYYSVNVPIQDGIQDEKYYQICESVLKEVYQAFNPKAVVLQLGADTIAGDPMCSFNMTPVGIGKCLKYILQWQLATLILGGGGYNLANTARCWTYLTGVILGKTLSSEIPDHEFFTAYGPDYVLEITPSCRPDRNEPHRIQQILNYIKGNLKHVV

O=C(CCCCCCC(=O)Nc1ccccc1)NO [SAHA]
binding kinetics nature (deacetylation progression linear) (HDACs 1, 2 and 3): fast-on/fast-off | inhibition of HDAC8 (HDAC8): inhibits | inhibition of HDAC6 (HDAC6): inhibits

C[C@@H]1CCCCO[C@@H](CN(C)Cc2ccc3c(c2)OCO3)[C@H](C)CN([C@@H](C)CO)C(=O)c2cc(N(C)C)ccc2O1 [entry 1]
IC50 (HDAC1): 2.7 ± 0.3 µM | IC50 (HDAC3): 2.7 ± 0.2 µM | activity against HDACs 4-8 (HDACs 4-8): inactive | fold improvement in HDAC2 potency (HDAC2; compared to lead stereoisomer (2R,5S,6R,12R)-32): > 10 fold | IC50 (HDAC2; read-out: IC50 HDAC2): 6.6 ± 0.4 µM

CCC(=O)CCCCC[C@@H]1NC(=O)[C@H]2CCCCN2C(=O)[C@H]([C@@H](C)CC)NC(=O)[C@H](Cc2cn(OC)c3ccccc23)NC1=O [Apicidin]
HDAC class selectivity (HDAC): selectivity for class I HDACs | potency in HDAC biochemical assay (HDAC): single digit nanomolar potency
